Source: the supplement of paper PMC10307832

What was measured:
Assay in all cases: relative viability (nuclei count vs DMSO), 5 days (fraction); higher = more cells survive
BEN = test system: BEN
In short: (§1)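 Dosing by pin tool came one day after lung cancer cell lines were seeded in 1536-well plates, using either one drug or a fixed anchor-drug dose plus five library-drug doses (not always all listed) in √10 steps. After 5 days, nuclei were counted on 4× images. Relative viability is treated-well nuclei count divided by vehicle-well nuclei count, and values are medians of duplicate plates.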

ChaGo-K-1 = test system: ChaGo-K-1
In short: as §1

HCC-78 = test system: HCC-78
In short: as §1

LC-2-ad = test system: LC-2-ad
In short: as §1

LCLC-97TM1 = test system: LCLC-97TM1
In short: as §1

LK-2 = test system: LK-2
In short: as §1

LU99A = test system: LU99A
In short: as §1

LXF-289 = test system: LXF-289
In short: as §1

NCI-H1355 = test system: NCI-H1355
In short: as §1

NCI-H1651 = test system: NCI-H1651
In short: as §1

NCI-H1666 = test system: NCI-H1666
In short: as §1

NCI-H1944 = test system: NCI-H1944
In short: as §1

NCI-H1975 = test system: NCI-H1975
In short: as §1

NCI-H2087 = test system: NCI-H2087
In short: as §1

NCI-H2342 = test system: NCI-H2342
In short: as §1

NCI-H358 = test system: NCI-H358
In short: as §1

NCI-H596 = test system: NCI-H596
In short: as §1

NCI-H650 = test system: NCI-H650
In short: as §1

NCI-H661 = test system: NCI-H661
In short: as §1

NCI-H838 = test system: NCI-H838
In short: as §1

PC-3 [JPC-3] = test system: PC-3 [JPC-3]
In short: as §1

SK-MES-1 = test system: SK-MES-1
In short: as §1

CCN(CC)CCCCNc1ncc2cc(-c3cc(OC)cc(OC)c3)c(NC(=O)NC(C)(C)C)nc2n1 + O=C(c1cc(Cc2n[nH]c(=O)c3ccccc23)ccc1F)N1CCN(C(=O)C2CC2)CC1 [Olaparib] (partner 8 µM)
relative viability (BEN; first compound 0.01 µM): 1.18
relative viability (BEN; first compound 0.03162 µM): 0.97
relative viability (BEN; first compound 0.1 µM): 1.01
relative viability (BEN; first compound 0.3162 µM): 1.17
relative viability (BEN; first compound 1 µM): 1.01
relative viability (ChaGo-K-1; first compound 0.01 µM): 0.444
relative viability (ChaGo-K-1; first compound 0.03162 µM): 0.416
relative viability (ChaGo-K-1; first compound 0.1 µM): 0.442
relative viability (ChaGo-K-1; first compound 0.3162 µM): 0.46
relative viability (ChaGo-K-1; first compound 1 µM): 0.388
relative viability (HCC-78; first compound 0.01 µM): 0.82
relative viability (HCC-78; first compound 0.03162 µM): 0.782
relative viability (HCC-78; first compound 0.1 µM): 0.802
relative viability (HCC-78; first compound 0.3162 µM): 0.94
relative viability (HCC-78; first compound 1 µM): 0.771
relative viability (LC-2-ad; first compound 0.01 µM): 0.776
relative viability (LC-2-ad; first compound 0.03162 µM): 0.744
relative viability (LC-2-ad; first compound 0.1 µM): 0.787
relative viability (LC-2-ad; first compound 0.3162 µM): 0.788
relative viability (LC-2-ad; first compound 1 µM): 0.668
relative viability (LCLC-97TM1; first compound 0.01 µM): 0.413
relative viability (LCLC-97TM1; first compound 0.03162 µM): 0.399
relative viability (LCLC-97TM1; first compound 0.1 µM): 0.479
relative viability (LCLC-97TM1; first compound 0.3162 µM): 0.512
relative viability (LCLC-97TM1; first compound 1 µM): 0.222
relative viability (LK-2; first compound 0.01 µM): 0.634
relative viability (LK-2; first compound 0.03162 µM): 0.547
relative viability (LK-2; first compound 0.1 µM): 0.714
relative viability (LK-2; first compound 0.3162 µM): 0.457
relative viability (LK-2; first compound 1 µM): 0.226
relative viability (LU99A; first compound 0.01 µM): 0.249
relative viability (LU99A; first compound 0.03162 µM): 0.288
relative viability (LU99A; first compound 0.1 µM): 0.286
relative viability (LU99A; first compound 0.3162 µM): 0.285
relative viability (LU99A; first compound 1 µM): 0.245
relative viability (LXF-289; first compound 0.01 µM): 1.14
relative viability (LXF-289; first compound 0.03162 µM): 1.11
relative viability (LXF-289; first compound 0.1 µM): 1.25
relative viability (LXF-289; first compound 0.3162 µM): 1.1
relative viability (LXF-289; first compound 1 µM): 1.08
relative viability (NCI-H1355; first compound 0.01 µM): 0.789
relative viability (NCI-H1355; first compound 0.03162 µM): 0.719
relative viability (NCI-H1355; first compound 0.1 µM): 0.853
relative viability (NCI-H1355; first compound 0.3162 µM): 0.83
relative viability (NCI-H1355; first compound 1 µM): 0.737
relative viability (NCI-H1651; first compound 0.01 µM): 0.193
relative viability (NCI-H1651; first compound 0.03162 µM): 0.192
relative viability (NCI-H1651; first compound 0.1 µM): 0.175
relative viability (NCI-H1651; first compound 0.3162 µM): 0.203
relative viability (NCI-H1651; first compound 1 µM): 0.183
relative viability (NCI-H1666; first compound 0.01 µM): 0.812
relative viability (NCI-H1666; first compound 0.03162 µM): 0.708
relative viability (NCI-H1666; first compound 0.1 µM): 0.686
relative viability (NCI-H1666; first compound 0.3162 µM): 0.748
relative viability (NCI-H1666; first compound 1 µM): 0.719
relative viability (NCI-H1944; first compound 0.01 µM): 0.363
relative viability (NCI-H1944; first compound 0.03162 µM): 0.415
relative viability (NCI-H1944; first compound 0.1 µM): 0.474
relative viability (NCI-H1944; first compound 0.3162 µM): 0.428
relative viability (NCI-H1944; first compound 1 µM): 0.394
relative viability (NCI-H1975; first compound 0.01 µM): 0.85
relative viability (NCI-H1975; first compound 0.03162 µM): 0.791
relative viability (NCI-H1975; first compound 0.1 µM): 1.05
relative viability (NCI-H1975; first compound 0.3162 µM): 0.903
relative viability (NCI-H1975; first compound 1 µM): 0.708
relative viability (NCI-H2087; first compound 0.01 µM): 0.581
relative viability (NCI-H2087; first compound 0.03162 µM): 0.599
relative viability (NCI-H2087; first compound 0.1 µM): 0.71
relative viability (NCI-H2087; first compound 0.3162 µM): 0.735
relative viability (NCI-H2087; first compound 1 µM): 0.476
relative viability (NCI-H2342; first compound 0.01 µM): 0.476
relative viability (NCI-H2342; first compound 0.03162 µM): 0.437
relative viability (NCI-H2342; first compound 0.1 µM): 0.459
relative viability (NCI-H2342; first compound 0.3162 µM): 0.509
relative viability (NCI-H2342; first compound 1 µM): 0.519
relative viability (NCI-H358; first compound 0.01 µM): 0.683
relative viability (NCI-H358; first compound 0.03162 µM): 0.642
relative viability (NCI-H358; first compound 0.1 µM): 0.744
relative viability (NCI-H358; first compound 0.3162 µM): 0.69
relative viability (NCI-H358; first compound 1 µM): 0.469
relative viability (NCI-H596; first compound 0.01 µM): 0.649
relative viability (NCI-H596; first compound 0.03162 µM): 0.727
relative viability (NCI-H596; first compound 0.1 µM): 0.635
relative viability (NCI-H596; first compound 0.3162 µM): 0.723
relative viability (NCI-H596; first compound 1 µM): 0.563
relative viability (NCI-H650; first compound 0.01 µM): 0.369
relative viability (NCI-H650; first compound 0.03162 µM): 0.408
relative viability (NCI-H650; first compound 0.1 µM): 0.41
relative viability (NCI-H650; first compound 0.3162 µM): 0.355
relative viability (NCI-H650; first compound 1 µM): 0.391
relative viability (NCI-H661; first compound 0.01 µM): 0.702
relative viability (NCI-H661; first compound 0.03162 µM): 0.713
relative viability (NCI-H661; first compound 0.1 µM): 0.788
relative viability (NCI-H661; first compound 0.3162 µM): 0.822
relative viability (NCI-H661; first compound 1 µM): 0.739
relative viability (NCI-H838; first compound 0.01 µM): 0.824
relative viability (NCI-H838; first compound 0.03162 µM): 0.835
relative viability (NCI-H838; first compound 0.1 µM): 0.743
relative viability (NCI-H838; first compound 0.3162 µM): 0.745
relative viability (NCI-H838; first compound 1 µM): 0.603
relative viability (PC-3 [JPC-3]; first compound 0.03162 µM): 1.08
relative viability (PC-3 [JPC-3]; first compound 0.1 µM): 1.29
relative viability (PC-3 [JPC-3]; first compound 0.3162 µM): 1.19
relative viability (PC-3 [JPC-3]; first compound 1 µM): 1.07
relative viability (SK-MES-1; first compound 0.01 µM): 0.913
relative viability (SK-MES-1; first compound 0.03162 µM): 0.752
relative viability (SK-MES-1; first compound 0.1 µM): 0.863
relative viability (SK-MES-1; first compound 0.3162 µM): 0.735
relative viability (SK-MES-1; first compound 1 µM): 0.727
